Measured values as given in the supplement of paper PMC10307832.

Tests used:
Test in all cases: relative viability (nuclei count vs DMSO), 5 days (fraction); higher = more cells survive
[1] = compound: C1CN(CCC1C(C2=CC3=C(C=C2)OCO3)(C4=CC5=C(C=C4)OCO5)O)C(=O)OC6=CC=C(C=C6)[N+](=O)[O-] [JZL-184] + O=C(CCCCCCC(=O)Nc1ccccc1)NO [Vorinostat] (partner 1 µM)
In short: (§1)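 Cells from lung cancer lines were seeded into 1536-well plates and, one day later, dosed by pin tool. Treatments were either a single drug or a fixed dose of an anchor drug with five library-drug doses (not always all listed) in √10 steps. After 5 days, nuclei were stained in a one-step fixation (final 0.05% Triton X-100, 1% formaldehyde, 1 ug/ml Hoechst) and counted on 4× images, and relative viability is the treated-to-vehicle nuclei ratio, as the median of duplicate plates.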

[2] = compound: C1CN(CCC1C(C2=CC3=C(C=C2)OCO3)(C4=CC5=C(C=C4)OCO5)O)C(=O)OC6=CC=C(C=C6)[N+](=O)[O-] [JZL-184] + Nc1nc2[nH]cc(CCc3ccc(C(=O)N[C@@H](CCC(=O)O)C(=O)O)cc3)c2c(=O)[nH]1 [Pemetrexed] (partner 0.2 µM)
In short: as §1

[3] = compound: C1CN(CCC1C(C2=CC3=C(C=C2)OCO3)(C4=CC5=C(C=C4)OCO5)O)C(=O)OC6=CC=C(C=C6)[N+](=O)[O-] [JZL-184] + Cc1nc(NC(=O)N2CCC[C@H]2C(N)=O)sc1-c1ccnc(C(C)(C)C(F)(F)F)c1 [Alpelisib] (partner 2 µM)
In short: as §1

[4] = compound: C1CN(CCC1C(C2=CC3=C(C=C2)OCO3)(C4=CC5=C(C=C4)OCO5)O)C(=O)OC6=CC=C(C=C6)[N+](=O)[O-] [JZL-184] + Nc1ncn([C@H]2C[C@H](O)[C@@H](CO)O2)c(=O)n1 [Decitabine] (partner 2 µM)
In short: as §1

[5] = compound: C1CN(CCC1C(C2=CC3=C(C=C2)OCO3)(C4=CC5=C(C=C4)OCO5)O)C(=O)OC6=CC=C(C=C6)[N+](=O)[O-] [JZL-184] + O=C(c1cc(Cc2n[nH]c(=O)c3ccccc23)ccc1F)N1CCN(C(=O)C2CC2)CC1 [Olaparib] (partner 8 µM)
In short: as §1

Cell Line: NCI-H1666
- relative viability ([1]; first compound 0.04 µM): 1.07
- relative viability ([1]; first compound 0.4 µM): 1.02
- relative viability ([1]; first compound 1.265 µM): 1.01
- relative viability ([1]; first compound 4 µM): 1.01
- relative viability ([2]; first compound 0.04 µM): 0.802
- relative viability ([2]; first compound 0.4 µM): 0.842
- relative viability ([2]; first compound 1.265 µM): 0.875
- relative viability ([2]; first compound 4 µM): 0.865
- relative viability ([3]; first compound 0.04 µM): 1.04
- relative viability ([3]; first compound 0.4 µM): 0.919
- relative viability ([3]; first compound 1.265 µM): 1.05
- relative viability ([3]; first compound 4 µM): 1.06
- relative viability ([4]; first compound 0.04 µM): 0.77
- relative viability ([4]; first compound 0.4 µM): 0.557
- relative viability ([4]; first compound 1.265 µM): 0.701
- relative viability ([4]; first compound 4 µM): 0.792
- relative viability ([5]; first compound 0.04 µM): 0.755
- relative viability ([5]; first compound 0.4 µM): 0.716
- relative viability ([5]; first compound 1.265 µM): 0.712
- relative viability ([5]; first compound 4 µM): 0.735

Cell Line: LOU-NH91
- relative viability ([1]; first compound 0.04 µM): 1.02
- relative viability ([1]; first compound 0.4 µM): 0.893
- relative viability ([1]; first compound 1.265 µM): 1.03
- relative viability ([1]; first compound 4 µM): 0.893
- relative viability ([2]; first compound 0.04 µM): 0.389
- relative viability ([2]; first compound 0.4 µM): 0.334
- relative viability ([2]; first compound 1.265 µM): 0.381
- relative viability ([2]; first compound 4 µM): 0.394
- relative viability ([3]; first compound 0.04 µM): 0.778
- relative viability ([3]; first compound 0.4 µM): 0.728
- relative viability ([3]; first compound 1.265 µM): 0.745
- relative viability ([3]; first compound 4 µM): 0.711
- relative viability ([4]; first compound 0.04 µM): 0.814
- relative viability ([4]; first compound 0.4 µM): 0.837
- relative viability ([4]; first compound 1.265 µM): 0.863
- relative viability ([4]; first compound 4 µM): 0.749
- relative viability ([5]; first compound 0.04 µM): 1
- relative viability ([5]; first compound 0.4 µM): 0.902
- relative viability ([5]; first compound 1.265 µM): 0.957
- relative viability ([5]; first compound 4 µM): 0.889

Cell Line: ABC-1
- relative viability ([1]; first compound 0.04 µM): 1.59
- relative viability ([1]; first compound 0.4 µM): 0.961
- relative viability ([1]; first compound 1.265 µM): 1.42
- relative viability ([1]; first compound 4 µM): 0.929
- relative viability ([3]; first compound 0.04 µM): 1.1
- relative viability ([3]; first compound 0.4 µM): 0.996
- relative viability ([3]; first compound 1.265 µM): 1.06
- relative viability ([3]; first compound 4 µM): 0.952
- relative viability ([4]; first compound 0.04 µM): 1.59
- relative viability ([4]; first compound 0.4 µM): 1.07
- relative viability ([4]; first compound 1.265 µM): 1.03
- relative viability ([4]; first compound 4 µM): 1.22
- relative viability ([5]; first compound 0.04 µM): 0.821
- relative viability ([5]; first compound 0.4 µM): 0.814
- relative viability ([5]; first compound 1.265 µM): 0.842
- relative viability ([5]; first compound 4 µM): 0.829

Cell Line: NCI-H1651
- relative viability ([1]; first compound 0.04 µM): 0.593
- relative viability ([1]; first compound 0.4 µM): 0.36
- relative viability ([1]; first compound 1.265 µM): 0.5
- relative viability ([1]; first compound 4 µM): 0.554
- relative viability ([2]; first compound 0.04 µM): 0.592
- relative viability ([2]; first compound 0.4 µM): 0.362
- relative viability ([2]; first compound 1.265 µM): 0.411
- relative viability ([2]; first compound 4 µM): 0.595
- relative viability ([3]; first compound 0.04 µM): 1.05
- relative viability ([3]; first compound 0.4 µM): 0.929
- relative viability ([3]; first compound 1.265 µM): 1.03
- relative viability ([3]; first compound 4 µM): 0.834
- relative viability ([4]; first compound 0.04 µM): 0.667
- relative viability ([4]; first compound 0.4 µM): 0.358
- relative viability ([4]; first compound 1.265 µM): 0.428
- relative viability ([4]; first compound 4 µM): 0.623
- relative viability ([5]; first compound 0.04 µM): 0.24
- relative viability ([5]; first compound 0.4 µM): 0.176
- relative viability ([5]; first compound 1.265 µM): 0.196
- relative viability ([5]; first compound 4 µM): 0.207

Cell Line: 201T
- relative viability ([1]; first compound 0.04 µM): 0.995
- relative viability ([1]; first compound 0.4 µM): 0.983
- relative viability ([1]; first compound 1.265 µM): 1.01
- relative viability ([1]; first compound 4 µM): 0.902
- relative viability ([2]; first compound 0.04 µM): 0.355
- relative viability ([2]; first compound 0.4 µM): 0.351
- relative viability ([2]; first compound 1.265 µM): 0.348
- relative viability ([2]; first compound 4 µM): 0.293
- relative viability ([3]; first compound 0.04 µM): 0.991
- relative viability ([3]; first compound 0.4 µM): 1.05
- relative viability ([3]; first compound 1.265 µM): 1.04
- relative viability ([3]; first compound 4 µM): 0.997
- relative viability ([4]; first compound 0.04 µM): 0.83
- relative viability ([4]; first compound 0.4 µM): 0.84
- relative viability ([4]; first compound 1.265 µM): 0.841
- relative viability ([4]; first compound 4 µM): 0.845
- relative viability ([5]; first compound 0.04 µM): 0.858
- relative viability ([5]; first compound 0.4 µM): 0.845
- relative viability ([5]; first compound 1.265 µM): 0.82
- relative viability ([5]; first compound 4 µM): 0.841

Cell Line: NCI-H3122
- relative viability ([1]; first compound 0.04 µM): 1.05
- relative viability ([1]; first compound 0.4 µM): 0.988
- relative viability ([1]; first compound 1.265 µM): 0.965
- relative viability ([1]; first compound 4 µM): 1.06
- relative viability ([2]; first compound 0.04 µM): 0.187
- relative viability ([2]; first compound 0.4 µM): 0.18
- relative viability ([2]; first compound 1.265 µM): 0.2
- relative viability ([2]; first compound 4 µM): 0.204
- relative viability ([3]; first compound 0.04 µM): 0.751
- relative viability ([3]; first compound 0.4 µM): 0.813
- relative viability ([3]; first compound 1.265 µM): 0.646
- relative viability ([3]; first compound 4 µM): 0.804
- relative viability ([4]; first compound 0.04 µM): 0.411
- relative viability ([4]; first compound 0.4 µM): 0.458
- relative viability ([4]; first compound 1.265 µM): 0.375
- relative viability ([4]; first compound 4 µM): 0.433
- relative viability ([5]; first compound 0.04 µM): 0.571
- relative viability ([5]; first compound 0.4 µM): 0.55
- relative viability ([5]; first compound 1.265 µM): 0.667
- relative viability ([5]; first compound 4 µM): 0.598

Cell Line: A549
- relative viability ([3]; first compound 0.04 µM): 0.966
- relative viability ([3]; first compound 0.4 µM): 0.588
- relative viability ([3]; first compound 1.265 µM): 0.894
- relative viability ([3]; first compound 4 µM): 0.614
- relative viability ([4]; first compound 0.04 µM): 0.278
- relative viability ([4]; first compound 1.265 µM): 0.26
- relative viability ([4]; first compound 4 µM): 0.273
- relative viability ([5]; first compound 0.04 µM): 0.31
- relative viability ([5]; first compound 0.4 µM): 0.288
- relative viability ([5]; first compound 1.265 µM): 0.382
- relative viability ([5]; first compound 4 µM): 0.367
